# Molecular target: recombinant human CCR5 receptor (Homo sapiens, UniProt P51681)
# Assay: in vitro radioligand binding assay (inhibition of binding of RANTES or MIP-1α), scintillation proximity
# Conditions: membranes from Chinese hamster ovary cells expressing recombinant human CCR5; 0.1 nM iodinated RANTES or MIP-1α; average if tested more than once
# Protocol: The ability of compounds to inhibit the binding of RANTES or MIP-1α was assessed by an in vitro radioligand binding assay. Membranes were prepared from Chinese hamster ovary cells which expressed the recombinant human CCR5 receptor. These membranes were incubated with 0.1 nM iodinated RANTES or MIP-1α, scintillation proximity beads and various concentrations of the compounds of the invention in 96-well plates. The amount of iodinated RANTES or MIP-1α bound to the receptor was determined by scintillation counting.
# In Table IV the results are presented as Pic50 values.
# recombinant human CCR5 receptor, sequence (P51681 whole entry): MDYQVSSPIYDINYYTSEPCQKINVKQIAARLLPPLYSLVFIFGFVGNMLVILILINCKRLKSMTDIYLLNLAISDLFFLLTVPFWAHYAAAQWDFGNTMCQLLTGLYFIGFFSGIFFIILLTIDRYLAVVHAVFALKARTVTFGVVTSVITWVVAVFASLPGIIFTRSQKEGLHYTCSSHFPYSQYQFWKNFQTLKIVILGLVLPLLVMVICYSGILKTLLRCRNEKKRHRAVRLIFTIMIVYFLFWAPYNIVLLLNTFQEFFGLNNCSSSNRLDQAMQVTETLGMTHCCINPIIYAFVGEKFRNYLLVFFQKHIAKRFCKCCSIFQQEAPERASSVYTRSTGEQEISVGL
Compound,Pic50,IC50 [nM]
"CCN(C(=O)Cc1ccc(S(C)(=O)=O)cc1)C1CCN(CC[C@H](NC(=O)C2CCC(F)(F)CC2)c2ccccc2)CC1 [Table 1 Compound 1, (S)—N-[1-(3-phenyl-3-[4,4-difluorocyclohexylcarboxyamino]propyl)-4-piperidinyl]-N-ethyl-4-methanesulfonylphenylacetamide]",8.95,
"CCN(C(=O)Cc1ccc(S(C)(=O)=O)cc1)C1CCN(CC[C@H](NC(=O)N2CCC(F)CC2)c2ccccc2)CC1 [Table 1 Compound 2, (S)—N-[1-(3-phenyl-3-[4-fluoropiperidin-1-ylcarboxyamino]propyl)-4-piperidinyl]-N-ethyl-4-methanesulfonylphenylacetamide]",7.68,
"CCN(C(=O)Cc1ccc(S(C)(=O)=O)cc1)C1CCN(CC[C@H](NC(=O)N2CC[C@@H](F)C2)c2ccccc2)CC1 [Table 1 Compound 3, (S)—N-[1-(3-Phenyl-3-[(R)-3-fluoropyrrolidin-1-ylcarboxyamino]propyl)-4-piperidinyl]-N-ethyl4-methanesulfonylphenylacetamide]",7.76,
"CCN(C(=O)Cc1ccc(S(C)(=O)=O)cc1)[C@@H]1C[C@H]2CC[C@@H](C1)N2CC[C@H](NC(=O)C1CCC(F)(F)CC1)c1ccccc1 [Table 2 Compound 1, (S)-4,4-difluoro-cyclohexanecarboxylic acid[3-(3-{ethyl-[2-(4-methanesulfonyl-phenyl)-acetyl]-amino}-8-aza-bicyclo[3.2.1]oct-8-yl-exo)-1-phenyl-propyl]-amide]",,3.31
"(S)—N-[1-(3-[3,5-Difluorophenyl]-3-[3,3-difluorocyclobutylcarboxyamino]propyl)-4-piperidinyl]-N-ethyl-4-methanesulfonylphenylacetamide hydrochloride [Table 1 Compound 6]",8.65,
"N-[1-((4S)-4-Phenyl-4-[3,3-difluorocyclobutylcarboxyamino]but-2-yl)-4-piperidinyl]-N-ethyl-4-methanesulfonylphenylacetamide hydrochloride [Table 3 Compound 8]",9.15,
